Laboratory results published in US8450243B2, “Herbicidal quinoline and 1,8-naphthyridine compounds” (Syngenta Limited, priority 2009, dated 2013).

Legend:
Assay type in all cases: in vivo
[1] = system: Amaranthus retoflexus (AMARE); assay: Herbicidal glasshouse test, post-emergence; conditions: POST Application, evaluated after 13 days; for damage to plant (100=total damage to plant; 0=no damage to plant): 250 g/ha
Protocol: (§1) Seeds of a variety of test species were sown in standard soil in pots (Alopecurus myosuroides (ALOMY), Setaria faberi (SETFA), Echinochloa crus-galli (ECHCG), Abuthilon theophrasti (ABUTH) and Amaranthus retoflexus (AMARE)). After cultivation for one day (pre-emergence) or after 8 days cultivation (post-emergence) under controlled conditions in a glasshouse (at 24/16° C., day/night; 14 hours light; 65% humidity), the plants were sprayed with an aqueous spray solution derived from the formulation of the technical active ingredient in acetone/water (50:50) solution containing 0.5% Tween 20 (polyoxyethelyene sorbitan monolaurate, CAS RN 9005-64-5). Compounds were applied at 250 g/ha. The test plants were then grown in a glasshouse under controlled conditions in a glasshouse (at 24/16° C., day/night; 14 hours light; 65% humidity) and watered twice daily. After 13 days for pre and post-emergence, the test was evaluated (100=total damage to plant; 0=no damage to plant).

[2] = system: Echinochloa crus-galli (ECHCG); assay: Herbicidal glasshouse test, post-emergence; conditions: POST Application, evaluated after 13 days; for damage to plant (100=total damage to plant; 0=no damage to plant): 250 g/ha
Protocol: as §1

[3] = system: Alopecurus myosuroides (ALOMY); assay: Herbicidal glasshouse test, post-emergence; conditions: POST Application, evaluated after 13 days; for damage to plant (100=total damage to plant; 0=no damage to plant): 250 g/ha
Protocol: as §1

Setaria faberi (SETFA) [4] = assay: Herbicidal glasshouse test, post-emergence; conditions: POST Application, evaluated after 13 days; for damage to plant (100=total damage to plant; 0=no damage to plant): 250 g/ha
Protocol: as §1

[5] = system: Abuthilon theophrasti (ABUTH); assay: Herbicidal glasshouse test, post-emergence; conditions: POST Application, evaluated after 13 days; for damage to plant (100=total damage to plant; 0=no damage to plant): 250 g/ha
Protocol: as §1

[6] = system: Amaranthus retoflexus (AMARE); assay: Herbicidal glasshouse test, pre-emergence; conditions: PRE Application, evaluated after 13 days; for damage to plant (100=total damage to plant; 0=no damage to plant): 250 g/ha
Protocol: as §1

[7] = system: Echinochloa crus-galli (ECHCG); assay: Herbicidal glasshouse test, pre-emergence; conditions: PRE Application, evaluated after 13 days; for damage to plant (100=total damage to plant; 0=no damage to plant): 250 g/ha
Protocol: as §1

[8] = system: Alopecurus myosuroides (ALOMY); assay: Herbicidal glasshouse test, pre-emergence; conditions: PRE Application, evaluated after 13 days; for damage to plant (100=total damage to plant; 0=no damage to plant): 250 g/ha
Protocol: as §1

Setaria faberi (SETFA) [9] = assay: Herbicidal glasshouse test, pre-emergence; conditions: PRE Application, evaluated after 13 days; for damage to plant (100=total damage to plant; 0=no damage to plant): 250 g/ha
Protocol: as §1

[10] = system: Abuthilon theophrasti (ABUTH); assay: Herbicidal glasshouse test, pre-emergence; conditions: PRE Application, evaluated after 13 days; for damage to plant (100=total damage to plant; 0=no damage to plant): 250 g/ha
Protocol: as §1

SMILES | damage to plant (100=total damage to plant; 0=no damage to plant) [1] | damage to plant (100=total damage to plant; 0=no damage to plant) [2] | damage to plant (100=total damage to plant; 0=no damage to plant) [3] | damage to plant (100=total damage to plant; 0=no damage to plant) (Setaria faberi (SETFA) [4]) | damage to plant (100=total damage to plant; 0=no damage to plant) [5] | damage to plant (100=total damage to plant; 0=no damage to plant) [6] | damage to plant (100=total damage to plant; 0=no damage to plant) [7] | damage to plant (100=total damage to plant; 0=no damage to plant) [8] | damage to plant (100=total damage to plant; 0=no damage to plant) (Setaria faberi (SETFA) [9]) | damage to plant (100=total damage to plant; 0=no damage to plant) [10] | pest or weed control at 250 g/ha ([1]; Amaranthus retroflexus, post-emergence, 312 h, read-out: damage to plant (100=total damage to plant; 0=no damage to plant)) [%] | pest or weed control at 250 g/ha ([2]; Echinochloa crus-galli, post-emergence, 312 h, read-out: damage to plant (100=total damage to plant; 0=no damage to plant)) [%] | pest or weed control at 250 g/ha ([3]; Alopecurus myosuroides, post-emergence, 312 h, read-out: damage to plant (100=total damage to plant; 0=no damage to plant)) [%] | pest or weed control at 250 g/ha (Setaria faberi (SETFA) [4]; Setaria faberi, post-emergence, 312 h, read-out: damage to plant (100=total damage to plant; 0=no damage to plant)) [%] | pest or weed control at 250 g/ha ([5]; Abutilon theophrasti, post-emergence, 312 h, read-out: damage to plant (100=total damage to plant; 0=no damage to plant)) [%] | pest or weed control at 250 g/ha ([6]; Amaranthus retroflexus, pre-emergence, 312 h, read-out: damage to plant (100=total damage to plant; 0=no damage to plant)) [%] | pest or weed control at 250 g/ha ([7]; Echinochloa crus-galli, pre-emergence, 312 h, read-out: damage to plant (100=total damage to plant; 0=no damage to plant)) [%] | pest or weed control at 250 g/ha ([8]; Alopecurus myosuroides, pre-emergence, 312 h, read-out: damage to plant (100=total damage to plant; 0=no damage to plant)) [%] | pest or weed control at 250 g/ha (Setaria faberi (SETFA) [9]; Setaria faberi, pre-emergence, 312 h, read-out: damage to plant (100=total damage to plant; 0=no damage to plant)) [%] | pest or weed control at 250 g/ha ([10]; Abutilon theophrasti, pre-emergence, 312 h, read-out: damage to plant (100=total damage to plant; 0=no damage to plant)) [%]
O=C1CCCC(=O)C1C(=O)c1cc2cc(F)cnc2n(-c2cccc(C(F)(F)F)c2)c1=O [Compound 4.11] | 90 | 90 | 90 | 90 | 100 | 100 | 90 | 70 | 80 | 90 |  |  |  |  |  |  |  |  |  | 
O=C1CCCC(=O)C1C(=O)c1cc2cc(F)cnc2n(Cc2ccccc2F)c1=O [Compound 4.15] | 50 | 80 | 30 | 70 | 80 | 50 | 80 | 0 | 0 | 70 |  |  |  |  |  |  |  |  |  | 
O=C1CCCC(=O)C1C(=O)c1cc2cc(F)cnc2n(CCOc2ccccc2)c1=O [Compound 4.16] |  |  |  |  |  |  |  |  |  |  | 50 | 80 | 40 | 60 | 80 | 30 | 50 | 20 | 20 | 50
COc1ccc(Cn2c(=O)c(C(=O)C3C(=O)CCCC3=O)cc3cc(F)cnc32)cc1 [Compound 4.17] | 50 | 80 | 0 | 60 | 70 | 90 | 70 | 0 | 20 | 70 |  |  |  |  |  |  |  |  |  | 
COc1ccc(-n2c(=O)c(C(=O)C3C(=O)CCCC3=O)cc3cc(F)cnc32)cc1 [Compound 4.18] | 80 | 80 | 80 | 80 | 80 | 90 | 100 | 70 | 70 | 90 |  |  |  |  |  |  |  |  |  | 
COc1ccc(-n2c(=O)c(C(=O)C3C(=O)CCCC3=O)cc3cc(F)cnc32)cn1 [Compound 4.20] | 60 | 80 | 80 | 80 | 80 | 100 | 100 | 90 | 70 | 100 |  |  |  |  |  |  |  |  |  | 
Cc1ccccc1-n1c(=O)c(C(=O)C2C(=O)CCCC2=O)cc2cc(F)cnc21 [Compound 4.22] | 70 | 70 | 80 | 80 | 80 | 100 | 100 | 90 | 100 | 90 |  |  |  |  |  |  |  |  |  | 
O=C1CCCC(=O)C1C(=O)c1cc2cc(F)cnc2n(-c2cc(Cl)cc(Cl)c2)c1=O [Compound 4.23] | 80 | 80 | 70 | 70 | 80 | 70 | 100 | 90 | 90 | 80 |  |  |  |  |  |  |  |  |  | 
Cc1ccc(-n2c(=O)c(C(=O)C3C(=O)CCCC3=O)cc3cc(F)cnc32)cc1 [Compound 4.24] | 80 | 80 | 70 | 80 | 90 | 100 | 100 | 80 | 90 | 100 |  |  |  |  |  |  |  |  |  | 
O=C1CCCC(=O)C1C(=O)c1cc2cc(F)cnc2n(-c2cccc(Cl)c2)c1=O [Compound 4.25] | 70 | 80 | 80 | 80 | 80 | 50 | 100 | 90 | 100 | 90 |  |  |  |  |  |  |  |  |  | 
